Like-named read-outs stand apart in the source and are kept apart here. Blank lines part the entries; values can stand above or below the compound they belong to.
Assays:
APE1 = details: cited from earlier work
[1] = Dynamic light scattering (DLS) of compound aggregation; assay type: physicochemical; details: for effect of detergent on aggregation: 0.05% Brij 35; for concentration at which colloidal aggregates form: 20°C; for effect of centrifugation on aggregates: detergent-free buffer, centrifugation (60 min, 16000g)
Method: Dynamic light scattering (DLS) experiments were performed to monitor compound aggregation, using a SpectroLight 610 instrument (Xtal Concepts, Hamburg). The instrument features a laser diode (λ 658 nm) which was set to a power of 100 mW and a scattering angle of 150°. For each sample, five replicates of 60 sec duration were collected at 20°C. Instrument settings, including integration time, were held constant for all experiments. Samples (1 ul) were prepared under mineral oil in 96 well SBS plates. Samples included the same buffer used for enzyme activity assays, with or without Brij 35 (and in all cases without BSA). The compounds were introduced from 100x stocks prepared in DMSO, giving a final DMSO concentration of 1%; samples without compound contained 1% DMSO. The DLS studies were in some cases performed using compound stocks that had been stored at –20°C in DMSO.

apo APE1^ΔN38 = molecular target: T1, apo APE1^ΔN38 (Homo sapiens, UniProt P27695); assay: NMR chemical shift perturbation (15N-TROSY), apo APE1; assay type: binding; details: for number of residues with substantial CSPs (Δδ ≥ 0.015 ppm) / sum of CSPs (ΣΔδ) for all assigned APE1 residues / number of residues with relatively strong CSPs (Δδ ≥ 0.03 ppm): apo APE1^ΔN38 0.15 mM, compound 1 mM
T1 construct: Human APE1 lacking the 38 N-terminal residues (APE1^ΔN38); poly-His (N, cleaved yes); made in house; host or cells: E. coli

[2] = molecular target: T2, Human APE1 lacking the 38 N-terminal residues (APE1^ΔN38) (Homo sapiens, UniProt P27695); assay: APE1 endonuclease activity assay (HPLC, fraction activity); assay type: biochemical
T2 construct: Human APE1 lacking the 38 N-terminal residues (APE1^ΔN38); poly-His (N, cleaved yes); made in house; host or cells: E. coli

Mg^2+-bound APE1 = molecular target: T3, Mg^2+-bound APE1 (Homo sapiens, UniProt P27695); assay: NMR chemical shift perturbation (15N-TROSY), Mg2+-bound APE1; assay type: binding; details: MgCl2 0.25 mM or 1.0 mM
T3 construct: Human APE1 lacking the 38 N-terminal residues (APE1^ΔN38); poly-His (N, cleaved yes); made in house; host or cells: E. coli
Method: NMR samples (0.55 mL) contained uniformly ^15N-labeled APE1^ΔN38 (0.05 mM to 0.15 mM) in 0.02 M sodium phosphate pH 6.5, 0.1 M NaCl, 0.5 mM DTT, 0.2 mM EDTA, 10% D2O. The compounds were dissolved at 100x concentration in deuterated DMSO (DMSO-D6) and were added to the NMR samples at 1% (v/v) to give the desired compound concentration (and 1% DMSO-D6). Control samples contained APE1 with 1% DMSO-D6. […] NMR data were processed with NMRPipe, and analyzed using NMRFAM-Sparky. The chemical shift perturbation (Δδ) for backbone ^1H-^15N resonances (combined) was calculated (by NMRFAM-Sparky) using Eq 2, Δδ=ΔδH^2+ΔδN/5^2^1/2 (2) where ΔδH and ΔδN are the perturbations for ^1H and ^15N resonances, respectively.
Given the findings above, we sought to investigate whether compounds 6 or 7 might bind to the Mg^2+-bound form of APE1. […] Crystal structures of Mg^2+-bound APE1 have been determined, using crystals grown from a sample of APE1 with 1.0 mM MgCl2, a concentration that is sufficient to fully populate the metal-binding site with Mg^2+ [52, 73]. […]

[3] = Precipitation of compound in NMR samples; assay type: physicochemical; details: NMR buffer pH 6.5
Method: The NMR sample contained 0.03 mM compound 7 and 0.05 mM APE1, giving a molar ratio of 0.6. […] To minimize precipitation of 7, the NMR samples (including DMSO control) contained detergent (0.05% Brij 35) at the same concentration used for the activity assays. […] Thus, the NMR CSP studies provide no evidence that compound 7 binds specifically to apo-APE1. […] In particular, the population of AP-DNA bound was reduced from 100% (absence of 7) to about 30% and 5% in the presence of 7 at a concentration of 0.01 mM and 0.03 mM, respectively, indicating 7 binds with a Kd <0.01 mM to either APE1 or to AP-DNA.

[4] = test system: enzyme-substrate (ES) complex involving APE1 (28 nM) and AP-DNA (10 nM); design: method as in PMID 22455312; details: cited from earlier work; for population of AP-DNA bound: 100% in its absence
[5] = no detergent or BSA, 37°C, read-out: IC50 for APE1 inhibition (prior findings)
[6] = read-out: IC50 for APE1 inhibition (reported)
[7] = detergent-free assay buffer, 1% DMSO
[8] = 0.05% Brij 35, 0.1 mg/ml BSA, 80 nM DNA substrate, 23°C, 1% DMSO, read-out: IC50 for APE1 inhibition

T1 sequence (P27695 39-318): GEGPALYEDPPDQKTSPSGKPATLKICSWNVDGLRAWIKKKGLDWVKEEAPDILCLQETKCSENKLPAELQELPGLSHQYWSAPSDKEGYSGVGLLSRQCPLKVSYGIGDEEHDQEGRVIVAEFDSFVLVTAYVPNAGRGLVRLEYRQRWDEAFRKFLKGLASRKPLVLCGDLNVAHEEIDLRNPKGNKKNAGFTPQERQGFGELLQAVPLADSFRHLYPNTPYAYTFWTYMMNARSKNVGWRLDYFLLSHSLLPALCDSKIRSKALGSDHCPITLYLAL
T2 sequence (P27695 39-318): as above
T3 sequence (P27695 39-318): as above

Compound: O=C(O)c1cc2cc(F)ccc2[nH]1 [Compound 2, 5-fluoroindole-2-carboxylic acid]
IC50 (APE1; [5]): ≤ 10 µM
IC50 (APE1; [6]): 10 µM
effect of detergent on aggregation [1]: disrupted by detergent
concentrations at which the compound is free of aggregates [1, 7]: below 3 mM
concentration at which colloidal aggregates form [1, 7]: 10000 µM
effect of centrifugation on aggregates [1]: pelleted by centrifugation
number of residues with substantial CSPs (Δδ ≥ 0.015 ppm) (apo APE1^ΔN38): ten
sum of CSPs (ΣΔδ) for all assigned APE1 residues (apo APE1^ΔN38): 1.31

Compound: O=c1c(O)c(-c2cc(O)c(O)c(O)c2)oc2cc(O)cc(O)c12 [Compound 5, myricetin]
inhibition of APE1 ([2]; 0.33 mM compound, with detergent (0.05% Brij 35) and BSA): weak inhibition
IC50 (APE1; read-out: IC50 for APE1 inhibition (previous finding)): 0.3 µM
effect of detergent on aggregation [1]: disrupted by detergent
concentration at which colloidal aggregates form [1, 7]: ≥ 330 µM
effect of centrifugation on aggregates [1]: pelleted by centrifugation

Compound: Cc1cc(C)c2c(N)c3cccc(C)c3nc2n1 [Compound 6]
slope factor of the dependence of FA on compound concentration ([2]; 0.05% Brij 35, 0.1 mg/ml BSA): 1.5 ± 0.2
IC50 [2, 8]: 3.1 ± 0.3 µM
IC50 ([2]; as restated in the NMR section, read-out: IC50 observed here): 3 µM
CSPs (Δδ >0.015 ppm) for any residue of Mg2+-bound APE1 (Mg^2+-bound APE1; compound 0.30 mM, APE1 0.10 mM): does not induce CSPs
IC50 (APE1; read-out: IC50 for APE1 inhibition in vitro (previous finding)): 2 µM
residues exhibiting Δδ >0.015 ppm (apo APE1^ΔN38; 0.10 mM apo APE1, 0.30 mM compound): no residues

Compound: CC(=O)Nc1sc2c(c1-c1nc3ccccc3s1)CCN(C(C)C)C2 [Compound 7, N-(3-(benzo[d]-thiazol-2-yl)-6-isopropyl-4,5,6,7-tetrahydrothieno[2,3-c]-pyridin-2-yl)acetamide]
concentration at which the compound precipitates in NMR samples [3]: ≥ 90 µM
slope factor of the dependence of FA on compound concentration ([2]; 0.05% Brij 35, 0.1 mg/ml BSA): 1.2 ± 0.1
IC50 [2, 8]: 8.1 ± 0.6 µM
CSPs (Δδ >0.015 ppm) for any backbone residue of Mg2+-bound APE1 (Mg^2+-bound APE1; compound 0.030 mM, APE1 0.05 mM, 0.05% Brij 35): fails to induce CSPs
residues exhibiting Δδ >0.015 ppm (apo APE1^ΔN38; 0.05 mM apo APE1, 0.03 mM compound, 0.05% Brij 35): two
Kd (apo APE1^ΔN38; inferred from the absence of a detectible interaction, apo-APE1 0.05 mM, compound 0.03 mM, read-out: Kd for binding to apo-APE1): > 30 µM
population of AP-DNA bound ([4]; compound 0.01 mM): about 30%
population of AP-DNA bound ([4]; compound 0.03 mM): ~ 5%
Kd ([4]; inferred from the previous EMSA results, read-out: Kd for binding to either APE1 or AP-DNA): < 10 µM

Second part, led by results:

effect of detergent on aggregation [1]: disrupted by detergent
concentration at which colloidal aggregates form [1, 7]: 2000 µM
number of residues with substantial CSPs (Δδ ≥ 0.015 ppm) (apo APE1^ΔN38): 14
sum of CSPs (ΣΔδ) for all assigned APE1 residues (apo APE1^ΔN38): 1.19
Compound: O=C(O)c1cc2cccc([N+](=O)[O-])c2[nH]1 [Compound 1, 7-nitroindole-2-carboxylic acid]
IC50 (APE1; [5]): ≤ 10 µM
IC50 (APE1; [6]): 3 µM
effect of centrifugation on aggregates [1]: pelleted out of solution by centrifugation

effect of detergent on aggregation [1]: disrupted by detergent
effect of centrifugation on aggregates [1]: pelleted by centrifugation
number of residues with relatively strong CSPs (Δδ ≥ 0.03 ppm) (apo APE1^ΔN38): 14
number of residues with substantial CSPs (Δδ ≥ 0.015 ppm) (apo APE1^ΔN38): 20
sum of CSPs (ΣΔδ) for all assigned APE1 residues (apo APE1^ΔN38): 2.47
Compound: O=C(O)c1cc2cc([N+](=O)[O-])ccc2[nH]1 [Compound 3, 5-nitroindole-2-carboxylic acid]

effect of detergent on aggregation [1]: disrupted by detergent
concentration at which colloidal aggregates form [1, 7]: ≥ 1000 µM
effect of centrifugation on aggregates [1]: pelleted by centrifugation
number of residues with relatively strong CSPs (Δδ ≥ 0.03 ppm) (apo APE1^ΔN38): eight
number of residues with substantial CSPs (Δδ ≥ 0.015 ppm) (apo APE1^ΔN38): 22
sum of CSPs (ΣΔδ) for all assigned APE1 residues (apo APE1^ΔN38): 2.54
Compound: O=C(O)c1cc2ccc(Br)cc2[nH]1 [Compound 4, 6-bromoindole-2-carboxylic acid]

Source: article PMC9847973, “Characterizing inhibitors of human AP endonuclease 1” (PLOS ONE, 2023)
